What all share (type): biochemical
In experiment [1] the target is T1, IRAK4 (Homo sapiens, UniProt Q9NWZ3).
T1 sequence (Q9NWZ3 1-460): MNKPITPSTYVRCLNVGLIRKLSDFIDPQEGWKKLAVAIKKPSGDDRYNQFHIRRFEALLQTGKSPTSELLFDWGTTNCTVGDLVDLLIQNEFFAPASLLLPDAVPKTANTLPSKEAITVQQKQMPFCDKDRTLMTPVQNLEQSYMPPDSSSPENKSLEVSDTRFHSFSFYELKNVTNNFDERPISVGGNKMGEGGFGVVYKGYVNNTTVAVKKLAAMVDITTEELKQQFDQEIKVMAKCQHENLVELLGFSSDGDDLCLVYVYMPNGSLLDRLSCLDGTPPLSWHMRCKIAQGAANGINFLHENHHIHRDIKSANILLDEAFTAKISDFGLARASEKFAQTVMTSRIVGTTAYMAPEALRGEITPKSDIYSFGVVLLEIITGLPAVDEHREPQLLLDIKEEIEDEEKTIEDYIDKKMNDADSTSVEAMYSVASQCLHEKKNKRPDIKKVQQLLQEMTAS
Description: RBC HotSpot Kinase Assay, IRAK4. Set-up: purchased Reaction Biology (RBC HotSpot Kinase Assay). From the text: (§1) This assay uses the isolated kinase enzyme. This assay is very useful for determining competition of the inhibitor for ATP and/or substrates and for measuring the kinetics of enzyme inhibition. […] Unlike kinase binding assays that measure competition for ATP, the HotSpot Kinase Assay is a functional assay that measures catalytic activity; as such it measures relative functional potency regardless of the mechanism of enzyme inhibition. This assay uses the form of the various enzymes that are easiest to express, which may not necessarily be the form of the enzyme that exist in the cell. (Sometimes the carboxy terminus has been truncated to aid in expression, or, if it is a receptor kinase, the enzyme itself is isolated from the other parts of the receptor that are involved in regulating kinase activity.)
(§2) The reagent used was as follows: Base Reaction buffer; 20 mM Hepes (pH 7.5), 10 mM MgCl2, 1 mM EGTA, 0.01% Brij35, 0.02 mg/ml BSA, 0.1 mM Na3VO4, 2 mM DTT, 1% DMSO. Required cofactors were added individually to each kinase reaction.
(§3) The reaction procedure was as follows: • 1) Substrates were prepared in freshly prepared Reaction Buffer. • 2) Any required cofactors were delivered to the substrate solution above. • 3) Kinase was delivered into the substrate solution and gently mixed. • 4) Compounds were delivered in 100% DMSO into the kinase reaction mixture by Acoustic technology (Echo550; nanoliter range), followed by incubation for 20 min at room temp. • 5) ^33P-ATP was delivered into the reaction mixture to initiate the reaction. • 6) The mixture was incubated for 2 hours at room temperature. • 7) Kinase activity was detected by P81 filter-binding method.

The target in experiment [2] is T2, FLT3 (Homo sapiens, UniProt P36888).
T2 construct: purchased Reaction Biology (RBC HotSpot Kinase Assay)
T2 sequence (P36888 564-958 limits assumed): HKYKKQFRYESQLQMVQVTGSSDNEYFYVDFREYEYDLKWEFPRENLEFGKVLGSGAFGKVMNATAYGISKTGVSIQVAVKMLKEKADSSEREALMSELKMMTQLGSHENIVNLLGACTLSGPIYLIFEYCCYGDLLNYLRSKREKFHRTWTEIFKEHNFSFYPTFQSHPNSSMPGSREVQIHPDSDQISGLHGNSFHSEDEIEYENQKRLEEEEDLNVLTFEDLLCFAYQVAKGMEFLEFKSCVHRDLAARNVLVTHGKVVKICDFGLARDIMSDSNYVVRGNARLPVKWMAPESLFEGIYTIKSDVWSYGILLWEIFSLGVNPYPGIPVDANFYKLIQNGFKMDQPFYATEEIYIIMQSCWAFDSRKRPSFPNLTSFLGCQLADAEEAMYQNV
Description: RBC HotSpot Kinase Assay, FLT3.
From the text: as §1, §2, §3

Experiment [3] deals with T3, IRAK1 (Homo sapiens, UniProt P51617).
T3 construct: purchased Reaction Biology (RBC HotSpot Kinase Assay)
Description: RBC HotSpot Kinase Assay, IRAK1.
From the text: as §1, §2, §3

T3 sequence (P51617 whole entry): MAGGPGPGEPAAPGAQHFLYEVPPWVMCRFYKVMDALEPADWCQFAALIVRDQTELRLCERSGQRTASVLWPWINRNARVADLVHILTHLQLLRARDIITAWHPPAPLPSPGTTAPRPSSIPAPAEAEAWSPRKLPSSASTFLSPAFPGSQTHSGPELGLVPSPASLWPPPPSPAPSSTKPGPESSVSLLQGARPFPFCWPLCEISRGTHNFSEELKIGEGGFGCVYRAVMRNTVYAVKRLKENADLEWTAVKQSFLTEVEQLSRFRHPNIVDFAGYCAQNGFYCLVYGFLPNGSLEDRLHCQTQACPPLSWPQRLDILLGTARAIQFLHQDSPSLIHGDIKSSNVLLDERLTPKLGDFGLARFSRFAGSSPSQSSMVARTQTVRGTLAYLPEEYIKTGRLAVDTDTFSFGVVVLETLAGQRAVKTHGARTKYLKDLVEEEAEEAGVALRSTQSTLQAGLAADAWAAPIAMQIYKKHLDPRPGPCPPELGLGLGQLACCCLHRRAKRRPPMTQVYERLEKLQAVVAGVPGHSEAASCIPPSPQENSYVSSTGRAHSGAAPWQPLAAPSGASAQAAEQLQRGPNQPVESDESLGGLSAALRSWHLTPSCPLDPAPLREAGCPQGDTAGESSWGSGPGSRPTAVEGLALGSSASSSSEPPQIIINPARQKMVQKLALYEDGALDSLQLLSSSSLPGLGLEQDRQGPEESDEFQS

One may read the IC50 as the concentration at which inhibition is half-maximal. A low value points to inhibition by little substance. For the compound `Cc1oncc1-c1ccc2ncc(-c3cccc(NC4CC5(CNC5)C4)n3)n2n1` [Compound 36, N-(6-(6-(5-methylisoxazol-4-yl)imidazo[1,2-b]pyridazin-3-yl)pyridin-2-yl)-2-azaspiro[3.3]heptan-6-amine], the 50% inhibitory concentration (IC50) in experiment [1] worked out at 2700 nM; in experiment [2] it was 5 nM; in experiment [3], 3780 nM.

In the case of `CC(C)(O)Cn1cc(-c2ccc3ncc(-c4cccc(N[C@H]5CNC[C@@H]5C(F)(F)F)n4)n3n2)cn1` [Compound 14, 2-methyl-1-(4-(3-(6-(((3R,4S)-4-(trifluoromethyl)pyrrolidin-3-yl)amino)pyridin-2-yl)imidazo[1,2-b]pyridazin-6-yl)-1 H-pyrazol-1-yl)propan-2-ol], the IC50 in experiment [1] stood at 100 nM; in experiment [2], 3 nM; in experiment [3], 1850 nM.

Regarding `FC1(F)CNCC1Nc1cccc(-c2cnc3ccc(-c4cnn5c4CCCC5)nn23)n1` (stereo not drawn) [Compound 59, N-(4,4-difluoropyrrolidin-3-yl)-6-(6-(4,5,6,7-tetrahydropyrazolo[1,5-a]pyridin-3-yl)imidazo[1,2-b]pyridazin-3-yl)pyridin-2-amine], the figures for the IC50 in experiment [1], in experiment [2] and in experiment [3] were 12 nM, 2 nM and 621 nM, respectively.

On to `F[C@H]1CNC[C@@H]1Nc1cccc(-c2cnc3ccc(NC4CCC4)nn23)n1` [Compound 91, N-cyclobutyl-3-(6-(((3S,4S)-4-fluoropyrrolidin-3-yl)amino)pyridin-2-yl)imidazo[1,2-b]pyridazin-6-amine], for which the results for the IC50 in experiment [1], in experiment [2] and in experiment [3] were 101 nM, 6 nM and 1640 nM, respectively.

`F[C@H]1CNC[C@@H]1Nc1cccc(-c2cnc3ccc(C4CC4)nn23)n1` [Compound 69, 6-(6-cyclopropylimidazo[1,2-b]pyridazin-3-yl)-N-((3S,4S)-4-fluoropyrrolidin-3-yl)pyridin-2-amine]: the IC50 in experiment [1] stood at 45 nM; in experiment [2], 3 nM; in experiment [3], 3970 nM.

In the case of `F[C@H]1CNC[C@@H]1Nc1cccc(-c2cnc3ccc(-c4cnn(C5CC5)c4)nn23)n1` [Compound 3, 6-(6-(1-cyclopropyl-1 H-pyrazol-4-yl)imidazo[1,2-b]pyridazin-3-yl)-N-((3S,4S)-4-fluoropyrrolidin-3-yl)pyridin-2-amine], the IC50 is 71 nM in experiment [1], 1 nM in experiment [2] and 449 nM in experiment [3].

Take `CN(C)c1ccc2ncc(-c3cccc(N[C@H]4CNC[C@@H]4F)n3)n2n1` [Compound 90, 3-(6-(((3S,4S)-4-fluoropyrrolidin-3-yl)amino)pyridin-2-yl)-N,N-dimethylimidazo[1,2-b]pyridazin-6-amine]: the IC50 in experiment [1] was found to be 61 nM; in experiment [2] it was 4 nM; in experiment [3], 6290 nM.

Consider `F[C@H]1CNC[C@@H]1Nc1cccc(-c2cnc3ccc(N4CCOCC4)nn23)n1` [Compound 95, N-((3S,4S)-4-fluoropyrrolidin-3-yl)-6-(6-morpholinoimidazo[1,2-b]pyridazin-3-yl)pyridin-2-amine], for which the results for the IC50 in experiment [1], in experiment [2] and in experiment [3] were 24 nM, 4 nM and 1180 nM, respectively.

`c1ccc(-n2cc(-c3ccc4ncc(-c5cccc(NC6CC7(CCNC7)C6)n5)n4n3)cn2)cc1` (stereo not drawn) [Compound 40, N-(6-(6-(1-phenyl-1H-pyrazol-4-yl)imidazo[1,2-b]pyridazin-3-yl)pyridin-2-yl)-6-azaspiro[3.4]octan-2-amine]: the IC50 was 1300 nM in experiment [1], 9 nM in experiment [2] and above 10000 nM in experiment [3].

For `c1cc(N[C@@H]2CCCNC2)nc(-c2cnc3ccc(-c4cnn(C5CC5)c4)nn23)c1` [Compound 17, (R)-6-(6-(1-cyclopropyl-1 H-pyrazol-4-yl)imidazo[1,2-b]pyridazin-3-yl)-N-(piperidin-3-yl)pyridin-2-amine], the IC50 is 9 nM in experiment [1], below 0.5 nM in experiment [2] and 1820 nM in experiment [3].

On to `F[C@H]1CNC[C@@H]1Nc1cccc(-c2cnc3ccc(N4CCC4)nn23)n1` [Compound 93, 6-(6-(azetidin-1-yl)imidazo[1,2-b]pyridazin-3-yl)-N-((3S,4S)-4-fluoropyrrolidin-3-yl)pyridin-2-amine], for which the results for the concentration for half-maximal inhibition (IC50) in experiment [1], in experiment [2] and in experiment [3] were 39 nM, 4 nM and 2680 nM, respectively.

On to `COc1ccc2ncc(-c3cccc(N[C@H]4CNC[C@@H]4F)n3)n2n1` [Compound 87, N-((3S,4S)-4-fluoropyrrolidin-3-yl)-6-(6-methoxyimidazo[1,2-b]pyridazin-3-yl)pyridin-2-amine], for which the IC50 in experiment [1] was determined as 83 nM; in experiment [2] it was 3 nM; in experiment [3], 1650 nM.

Regarding `CC(C)(O)Cn1cc(-c2ccc3ncc(-c4cccc(NC5CNCC5(F)F)n4)n3n2)cn1` (stereo not drawn) [Compound 24, 1-(4-(3-(6-((4,4-difluoropyrrolidin-3-yl)amino)pyridin-2-yl)imidazo[1,2-b]pyridazin-6-yl)-1H-pyrazol-1-yl)-2-methylpropan-2-ol], the results for the IC50 in experiment [1], in experiment [2] and in experiment [3] were 261 nM, 17 nM and 1640 nM, respectively.

For the compound `Cn1cc(-c2ccc3ncc(-c4cccc(NC5CC6(CNC6)C5)n4)n3n2)cn1` [Compound 35, N-(6-(6-(1-methyl-1H-pyrazol-4-yl)imidazo[1,2-b]pyridazin-3-yl)pyridin-2-yl)-2-azaspiro[3.3]heptan-6-amine], the IC50 in experiment [1] was determined as 126 nM; in experiment [2], 3 nM; in experiment [3] it was 2820 nM.

Regarding `Cn1cc(-c2ccc3ncc(-c4cccc(NC5CCC6(CNC6)C5)n4)n3n2)cn1` (stereo not drawn) [Compound 49, N-(6-(6-(1-methyl-1H-pyrazol-4-yl)imidazo[1,2-b]pyridazin-3-yl)pyridin-2-yl)-2-azaspiro[3.4]octan-6-amine], the IC50 is 204 nM in experiment [1], 2 nM in experiment [2] and 1200 nM in experiment [3].

As for `c1cc(N[C@@H]2CCCNC2)nc(-c2cnc3ccc(C4CC4)nn23)c1` [Compound 76, (R)-6-(6-cyclopropylimidazo[1,2-b]pyridazin-3-yl)-N-(piperidin-3-yl)pyridin-2-amine], the IC50 in experiment [1] was determined as 345 nM; in experiment [2] it was 0.6 nM; in experiment [3], 3140 nM.

Take `FC(F)(F)[C@H]1CNC[C@@H]1Nc1cccc(-c2cnc3ccc(C4CC4)nn23)n1` [Compound 71, 6-(6-cyclopropylimidazo[1,2-b]pyridazin-3-yl)-N-((3R,4S)-4-(trifluoromethyl)pyrrolidin-3-yl)pyridin-2-amine]: the half-inhibitory concentration (IC50) in experiment [1] worked out at 36 nM; in experiment [2], 0.8 nM; in experiment [3], 2650 nM.

Turning to `F[C@H]1CNC[C@@H]1Nc1cccc(-c2cnc3ccc(C(F)(F)F)nn23)n1` [Compound 79, N-((3S,4S)-4-fluoropyrrolidin-3-yl)-6-(6-(trifluoromethyl)imidazo[1,2-b]pyridazin-3-yl)pyridin-2-amine], the IC50 came to 21 nM in experiment [1], 3 nM in experiment [2] and 4570 nM in experiment [3].

On to `c1cc(NC2CCNC2)nc(-c2cnc3ccc(-c4cn[nH]c4)nn23)c1` (stereo not drawn) [Compound 26, 6-(6-(1H-pyrazol-4-yl)imidazo[1,2-b]pyridazin-3-yl)-N-(pyrrolidin-3-yl)pyridin-2-amine], for which the IC50 in experiment [1] came out at 20 nM; in experiment [2], 0.9 nM; in experiment [3], 114 nM.

Turning to `c1cc(NC2CC3(CNC3)C2)nc(-c2cnc3ccc(-c4cnn5ccccc45)nn23)c1` [Compound 61, N-(6-(6-(pyrazolo[1,5-a]pyridin-3-yl)imidazo[1,2-b]pyridazin-3-yl)pyridin-2-yl)-2-azaspiro[3.3]heptan-6-amine], the IC50 in experiment [1] was 26 nM; in experiment [2], 1 nM; in experiment [3] it was 349 nM.
